# Reference: US9156877B2, “17-hydroxy-17-pentafluorethyl-estra-4,9(10)-dien-11-benzylidene derivatives, methods for the production thereof and use thereof for treating diseases” (Bayer Intellectual Property GmbH, priority 2009, dated 2015)
# pIC50: −log10 of the molar value.
# Legend:
# [1] = target: T1, human progesterone receptor B (Homo sapiens, UniProt P06401); assay: Progesterone receptor-antagonistic action in stably transfected SK-N-MC cells with MMTV-LUC reporter (PR-B); type: cell-based; conditions: antagonistic potency against 0.1 nmol/l promegestone, 24 hours, luciferase
# T1 construct: expressed in transfected cells; host or cells: SK-N-MC human neuroblastoma cells, stably transfected with pRChPR-B-neo and pMMTV-LUC
# T1 sequence (P06401 1-933): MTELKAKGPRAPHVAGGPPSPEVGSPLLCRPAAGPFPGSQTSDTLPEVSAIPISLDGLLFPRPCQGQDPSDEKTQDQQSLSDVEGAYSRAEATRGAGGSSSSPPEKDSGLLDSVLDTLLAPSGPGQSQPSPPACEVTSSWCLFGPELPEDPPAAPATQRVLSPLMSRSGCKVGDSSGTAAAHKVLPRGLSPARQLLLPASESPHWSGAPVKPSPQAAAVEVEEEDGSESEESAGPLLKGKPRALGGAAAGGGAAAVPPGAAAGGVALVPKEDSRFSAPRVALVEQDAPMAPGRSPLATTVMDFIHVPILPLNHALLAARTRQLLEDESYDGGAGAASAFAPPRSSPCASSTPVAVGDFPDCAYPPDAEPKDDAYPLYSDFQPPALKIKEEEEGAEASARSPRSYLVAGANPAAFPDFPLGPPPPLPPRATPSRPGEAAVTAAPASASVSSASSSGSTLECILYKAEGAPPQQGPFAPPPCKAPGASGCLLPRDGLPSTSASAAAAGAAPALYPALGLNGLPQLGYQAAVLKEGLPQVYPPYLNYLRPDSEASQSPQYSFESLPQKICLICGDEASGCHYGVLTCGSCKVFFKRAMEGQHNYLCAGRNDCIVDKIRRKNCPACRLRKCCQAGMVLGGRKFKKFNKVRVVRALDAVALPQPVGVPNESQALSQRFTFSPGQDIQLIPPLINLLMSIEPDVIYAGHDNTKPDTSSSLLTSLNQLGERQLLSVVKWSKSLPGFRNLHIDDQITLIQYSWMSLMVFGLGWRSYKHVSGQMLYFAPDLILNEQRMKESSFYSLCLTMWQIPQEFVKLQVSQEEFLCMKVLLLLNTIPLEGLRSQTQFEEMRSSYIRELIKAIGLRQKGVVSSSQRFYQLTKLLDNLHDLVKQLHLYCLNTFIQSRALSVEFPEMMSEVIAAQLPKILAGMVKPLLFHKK
# Description: (§1) Determination of Progesterone Receptor-Antagonistic Action in Stable Transfectants of Human Neuroblastoma Cells (SK-N-MC Cells) with the Human Progesterone A or Progesterone B Receptor and an MN-LUC Reporter Construct
# (§2) SK-N-MC cells (human neuroblastoma cells) which have been stably transfected with plasmids expressing the human progesterone receptor B (pRChPR-B-neo) or the human progesterone receptor A (pRChPR-A-neo) and a reporter construct (pMMTV-LUC) were incubated for 24 hours either in the absence (negative control) or in the presence of ascending amounts of the particular test compound (0.01 nmol/l, 0.1 nmol/l, 1 nmol/l, 10 nmol/l, 100 nmol/l and […]), in order to determine the agonistic efficacy. As a positive control of the reporter gene induction, the cells were treated with the synthetic gestagen promegestone (0.01 nmol/l, 0.1 nmol/l, 1 nmol/l, 10 nmol/l, 100 nmol/l and […]). To determine the antagonistic activity, the cells were treated with 0.1 nmol/l promegestone and additionally with ascending amounts of the particular test compound (0.01 nmol/l, 0.1 nmol/l, 1 nmol/l, 10 nmol/l, 100 nmol/l and […]). The activity of the reporter gene LUC (LUC=luciferase) was determined in the cell lysates and measured as RLU (relative light units). All measurements are reported as % efficacy and as EC50 and IC50 concentrations.
# [2] = target: T2, human progesterone receptor A (Homo sapiens, UniProt P06401); assay: Progesterone receptor-antagonistic action in stably transfected SK-N-MC cells with MMTV-LUC reporter (PR-A); type: cell-based; conditions: antagonistic potency against 0.1 nmol/l promegestone, 24 hours, luciferase
# T2 construct: expressed in transfected cells; host or cells: SK-N-MC human neuroblastoma cells, stably transfected with pRChPR-A-neo and pMMTV-LUC
# T2 sequence (P06401 1-769 isoform P06401-2): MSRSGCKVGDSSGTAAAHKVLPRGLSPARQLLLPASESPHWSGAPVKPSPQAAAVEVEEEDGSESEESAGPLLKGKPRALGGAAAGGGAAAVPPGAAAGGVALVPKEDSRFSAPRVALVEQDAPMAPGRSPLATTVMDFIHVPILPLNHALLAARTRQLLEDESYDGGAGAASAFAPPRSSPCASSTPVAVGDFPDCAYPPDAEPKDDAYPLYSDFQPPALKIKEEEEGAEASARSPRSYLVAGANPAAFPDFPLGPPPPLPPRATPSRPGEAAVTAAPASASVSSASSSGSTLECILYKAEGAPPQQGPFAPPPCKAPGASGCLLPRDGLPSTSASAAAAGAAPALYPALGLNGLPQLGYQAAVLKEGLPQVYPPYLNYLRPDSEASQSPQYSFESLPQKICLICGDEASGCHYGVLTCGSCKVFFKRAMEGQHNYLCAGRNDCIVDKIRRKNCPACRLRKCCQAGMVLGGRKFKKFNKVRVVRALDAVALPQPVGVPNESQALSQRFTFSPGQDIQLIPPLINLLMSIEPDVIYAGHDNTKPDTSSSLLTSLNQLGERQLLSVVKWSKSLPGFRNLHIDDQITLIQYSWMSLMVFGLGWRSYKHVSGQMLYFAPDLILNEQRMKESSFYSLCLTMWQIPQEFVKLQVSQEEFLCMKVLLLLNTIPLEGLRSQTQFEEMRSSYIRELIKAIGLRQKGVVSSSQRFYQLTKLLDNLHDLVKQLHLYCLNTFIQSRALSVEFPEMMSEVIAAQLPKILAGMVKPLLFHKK
# Description: as §1, §2
SMILES,pIC50 [1],pIC50 [2]
"CCOC(=O)CCNC(=O)NC/C=C/c1ccc([C@H]2C[C@@]3(C)C(CC[C@@]3(O)C(F)(F)C(F)(F)F)C3CCC4=CC(=O)CCC4=C32)cc1 (stereo partly drawn) [Example 49, (3-{(E)-3-[4-((8S,11R,13S,14S,17S)-17-hydroxy-13-methyl-3-oxo-17-pentafluoroethyl-2,3,6,7,8,11,12,13,14,15,16,17-dodecahydro-1H-cyclopenta[a]phenanthren-11-yl)phenyl]allyl}ureido)propionic acid ethyl ester]",9.52,10.00
"C[C@]12C[C@H](c3ccc(/C=C/CNC(=O)Nc4ccc(F)cc4)cc3)C3=C4CCC(=O)C=C4CC[C@H]3[C@@H]1CC[C@@]2(O)C(F)(F)C(F)(F)F [Example 44, 1-(4-fluorophenyl)-3-{(E)-3-[4-((8S,11R,13S,14S,17S)-17-hydroxy-13-methyl-3-oxo-17-pentafluoroethyl-2,3,6,7,8,11,12,13,14,15,16,17-dodecahydro-1H-cyclopenta[a]phenanthren-11-yl)phenyl]allyl}urea]",10.00,10.00
"C[C@]12C[C@H](c3ccc(/C=C/CNC(=O)Nc4ccc(N5CCCCC5)cc4)cc3)C3=C4CCC(=O)C=C4CC[C@H]3[C@@H]1CC[C@@]2(O)C(F)(F)C(F)(F)F [Example 58, 1-{(E)-3-[4-((8S,11R,13S,14S,17S)-17-hydroxy-13-methyl-3-oxo-17-pentafluoroethyl-2,3,6,7,8,11,12,13,14,15,16,17-dodecahydro-1H-cyclopenta[a]phenanthren-11-yl)phenyl]allyl}-3-(4-piperidin-1-ylphenyl)urea]",,9.30
"C[C@]12C[C@H](c3ccc(/C=N/OCc4ccc(Cl)c(Cl)c4)cc3)C3=C4CCC(=O)C=C4CC[C@H]3[C@@H]1CC[C@@]2(O)C(F)(F)C(F)(F)F [Example 37, 4-((8S,11R,13S,14S,17S)-17-hydroxy-13-methyl-3-oxo-17-pentafluoroethyl-2,3,6,7,8,11,12,13,14,15,16,17-dodecahydro-1H-cyclopenta[a]phenanthren-11-yl)benzaldehyde O-(3,4-dichlorobenzyl)oxime]",9.30,9.40
"C[C@]12C[C@H](c3ccc(/C=C/c4ccc(S(C)(=O)=O)cc4)cc3)C3=C4CCC(=O)C=C4CC[C@H]3[C@@H]1CC[C@@]2(O)C(F)(F)C(F)(F)F [Example 32, (8S,11R,13S,14S,17S)-17-hydroxy-11-{4-[(E)-2-(4-methanesulphonylphenyl)vinyl]phenyl}-13-methyl-17-pentafluoroethyl-1,2,6,7,8,11,12,13,14,15,16,17-dodecahydrocyclopenta[a]phenanthren-3-one]",11.00,11.00
"C[C@]12C[C@H](c3ccc(/C=C/CNC(=O)Nc4ccccc4)cc3)C3=C4CCC(=O)C=C4CC[C@H]3[C@@H]1CC[C@@]2(O)C(F)(F)C(F)(F)F [Example 42, 1-{(E)-3-[4-((8S,11R,13S,14S,17S)-17-hydroxy-13-methyl-3-oxo-17-pentafluoroethyl-2,3,6,7,8,11,12,13,14,15,16,17-dodecahydro-1H-cyclopenta[a]phenanthren-11-yl)phenyl]allyl}-3-phenylurea]",,10.00
"C=C(C)c1ccc([C@H]2C[C@@]3(C)[C@@H](CC[C@@]3(O)C(F)(F)C(F)(F)F)[C@@H]3CCC4=CC(=O)CCC4=C32)cc1 [Example 11, (8S,11R,13S,14S,17S)-17-hydroxy-11-(4-isopropenylphenyl)-13-methyl-17-pentafluoroethyl-1,2,6,7,8,11,12,13,14,15,16,17-dodecahydrocyclopenta[a]phenanthren-3-one]",10.92,

# Next, values leading:
pIC50 [1],pIC50 [2],SMILES
10.00,10.05,"C=CCNC(=O)NC/C=C/c1ccc([C@H]2C[C@@]3(C)[C@@H](CC[C@@]3(O)C(F)(F)C(F)(F)F)[C@@H]3CCC4=CC(=O)CCC4=C32)cc1 [Example 57, 1-allyl-3-{(E)-3-[4-((8S,11R,13S,14S,17S)-17-hydroxy-13-methyl-3-oxo-17-pentafluoroethyl-2,3,6,7,8,11,12,13,14,15,16,17-dodecahydro-1H-cyclopenta[a]phenanthren-11-yl)phenyl]allyl}urea]"
10.00,10.00,"Cc1ccc(NC(=O)NC/C=C/c2ccc([C@H]3C[C@@]4(C)[C@@H](CC[C@@]4(O)C(F)(F)C(F)(F)F)[C@@H]4CCC5=CC(=O)CCC5=C43)cc2)cc1 [Example 45, 1-{(E)-3-[4-((8S,11R,13S,14S,17S)-17-hydroxy-13-methyl-3-oxo-17-pentafluoroethyl-2,3,6,7,8,11,12,13,14,15,16,17-dodecahydro-1H-cyclopenta[a]phenanthren-11-yl)phenyl]allyl}-3-p-tolylurea]"
8.52,8.10,"C[C@]12C[C@H](c3ccc(/C=C/CNC(=O)NCCC(=O)O)cc3)C3=C4CCC(=O)C=C4CCC3C1CC[C@@]2(O)C(F)(F)C(F)(F)F (stereo partly drawn) [Example 50, (3-{(E)-3-[4-((8S,11R,13S,14S,17S)-17-hydroxy-13-methyl-3-oxo-17-pentafluoroethyl-2,3,6,7,8,11,12,13,14,15,16,17-dodecahydro-1H-cyclopenta[a]phenanthren-11-yl)phenyl]allyl}ureido)propionic acid]"
10.05,10.00,"CCOC(=O)c1ccc(NC(=O)NC/C=C/c2ccc([C@H]3C[C@@]4(C)[C@@H](CC[C@@]4(O)C(F)(F)C(F)(F)F)[C@@H]4CCC5=CC(=O)CCC5=C43)cc2)cc1 [Example 55, 4-(3-{(E)-3-[4-((8S,11R,13S,14S,17S)-17-hydroxy-13-methyl-3-oxo-17-pentafluoroethyl-2,3,6,7,8,11,12,13,14,15,16,17-dodecahydro-1H-cyclopenta[a]phenanthren-11-yl)phenyl]allyl}ureido)benzoic acid ethyl ester]"
,10.00,"COc1ccc(NC(=O)NC/C=C/c2ccc([C@H]3C[C@@]4(C)[C@@H](CC[C@@]4(O)C(F)(F)C(F)(F)F)[C@@H]4CCC5=CC(=O)CCC5=C43)cc2)cc1 [Example 54, 1-{(E)-3-[4-((8S,11R,13S,14S,17S)-17-hydroxy-13-methyl-3-oxo-17-pentafluoroethyl-2,3,6,7,8,11,12,13,14,15,16,17-dodecahydro-1H-cyclopenta[a]phenanthren-11-yl)phenyl]allyl}-3-(4-methoxyphenyl)urea]"
